This note sets out measurements from the NIST ThermoML archive (doi:10.1016/j.tca.2018.04.007).

Numbers after ± are expanded uncertainties.

For one series the following is noted: 283.15 K; 101.33 kPa; Liquid; Vibrating tube method.
As for `CCCC[P+](C)(CCCC)CCCC.COS(=O)(=O)[O-]` [tributylmethylphosphonium methyl sulfate], the mass density is 1066.59 ± 2 kg/m3.

The series is the same for the next values; noted with them: 283.15 K; 101.33 kPa; Liquid; transient hot wire.
As to `CCCC[P+](C)(CCCC)CCCC.O=S(=O)([N-]S(=O)(=O)C(F)(F)F)C(F)(F)F`, the thermal conductivity is 0.126 ± 0.002 W/m/K.

With `CCCCn1cc[n+](C)c1.COS(=O)(=O)[O-]` [1-butyl-3-methylimidazolium methyl sulfate], the thermal conductivity was determined as 0.179 ± 0.002 W/m/K.

As to `COS(=O)(=O)[O-].C[n+]1ccccc1` [1-methylpyridinium methylsulfate], the thermal conductivity worked out at 0.205 ± 0.002 W/m/K.

On to `OCC(O)CO` [glycerol], for which the thermal conductivity is recorded as 0.284 ± 0.002 W/m/K.

The same series, now with this note: 293.15 K; 101.33 kPa; Liquid; Capillary tube (Ostwald / Ubbelohde) method.
As for `CCCC[P+](C)(CCCC)CCCC.O=S(=O)([N-]S(=O)(=O)C(F)(F)F)C(F)(F)F`, the viscosity is reported as 299.3 ± 9.5 mPa·s.

Turning to `CCCCn1cc[n+](C)c1.COS(=O)(=O)[O-]` [1-butyl-3-methylimidazolium methyl sulfate], the viscosity is given as 269.1 ± 8 mPa·s.

In the case of `COS(=O)(=O)[O-].C[n+]1ccccc1` [1-methylpyridinium methylsulfate], the viscosity was 113.5 ± 2 mPa·s.

Regarding `CCCC[P+](C)(CCCC)CCCC.[Cl-]` [methyltributylphosphonium chloride], the viscosity amounted to 13511 ± 1300 mPa·s.

With `CCCC[P+](C)(CCCC)CCCC.COS(=O)(=O)[O-]` [tributylmethylphosphonium methyl sulfate], the viscosity was found to be 1434 ± 82 mPa·s.

Staying with this series, now noted: 293.15 K; 101.33 kPa; Liquid; Direct current cell with electrodes.
In the case of `CCCC[P+](C)(CCCC)CCCC.O=S(=O)([N-]S(=O)(=O)C(F)(F)F)C(F)(F)F`, the electrical conductivity was 0.0367 ± 0.0037 S/m.

In the case of `CCCCn1cc[n+](C)c1.COS(=O)(=O)[O-]` [1-butyl-3-methylimidazolium methyl sulfate], the electrical conductivity amounted to 0.104 ± 0.01 S/m.

In the case of `COS(=O)(=O)[O-].C[n+]1ccccc1` [1-methylpyridinium methylsulfate], the electrical conductivity came to 0.287 ± 0.029 S/m.

As to `CCCC[P+](C)(CCCC)CCCC.[Cl-]` [methyltributylphosphonium chloride], the electrical conductivity came to 0.00254 ± 0.00026 S/m.

As to `CCCC[P+](C)(CCCC)CCCC.COS(=O)(=O)[O-]` [tributylmethylphosphonium methyl sulfate], the electrical conductivity stood at 0.00749 ± 0.00075 S/m.

The series is the same for the next values; noted with them: 293.15 K; 101.33 kPa; Liquid; Vibrating tube method.
As to `CCCC[P+](C)(CCCC)CCCC.O=S(=O)([N-]S(=O)(=O)C(F)(F)F)C(F)(F)F`, the mass density is 1258.68 ± 2 kg/m3.

Regarding `CCCCn1cc[n+](C)c1.COS(=O)(=O)[O-]` [1-butyl-3-methylimidazolium methyl sulfate], the mass density is on record as 1211.96 ± 2 kg/m3.

Consider `COS(=O)(=O)[O-].C[n+]1ccccc1` [1-methylpyridinium methylsulfate], for which the mass density is 1348.1 ± 2.1 kg/m3.

`CCCC[P+](C)(CCCC)CCCC.[Cl-]` [methyltributylphosphonium chloride]: the mass density came to 958.67 ± 2 kg/m3.

For the compound `CCCC[P+](C)(CCCC)CCCC.COS(=O)(=O)[O-]` [tributylmethylphosphonium methyl sulfate], the mass density is recorded as 1060.4 ± 2 kg/m3.

The series is the same for the next values; noted with them: 293.15 K; 101.33 kPa; Liquid; transient hot wire.
In the case of `CCCC[P+](C)(CCCC)CCCC.O=S(=O)([N-]S(=O)(=O)C(F)(F)F)C(F)(F)F`, the thermal conductivity is 0.126 ± 0.002 W/m/K.

Turning to `CCCCn1cc[n+](C)c1.COS(=O)(=O)[O-]` [1-butyl-3-methylimidazolium methyl sulfate], the thermal conductivity is 0.177 ± 0.002 W/m/K.

For `COS(=O)(=O)[O-].C[n+]1ccccc1` [1-methylpyridinium methylsulfate], the thermal conductivity is given as 0.205 ± 0.002 W/m/K.

Turning to `OCC(O)CO` [glycerol], the thermal conductivity turned out to be 0.284 ± 0.002 W/m/K.

For `CCCC[P+](C)(CCCC)CCCC.[Cl-]` [methyltributylphosphonium chloride], the thermal conductivity was 0.159 ± 0.002 W/m/K.

`CCCC[P+](C)(CCCC)CCCC.COS(=O)(=O)[O-]` [tributylmethylphosphonium methyl sulfate]: the thermal conductivity stood at 0.16 ± 0.002 W/m/K.

The series is the same for the next values; noted with them: 303.15 K; 101.33 kPa; Liquid; Capillary tube (Ostwald / Ubbelohde) method.
Regarding `CCCC[P+](C)(CCCC)CCCC.O=S(=O)([N-]S(=O)(=O)C(F)(F)F)C(F)(F)F`, the viscosity turned out to be 156 ± 3.4 mPa·s.

For the compound `CCCCn1cc[n+](C)c1.COS(=O)(=O)[O-]` [1-butyl-3-methylimidazolium methyl sulfate], the viscosity came out at 151.9 ± 3.3 mPa·s.

For `COS(=O)(=O)[O-].C[n+]1ccccc1` [1-methylpyridinium methylsulfate], the viscosity was 69.2 ± 0.9 mPa·s.

Turning to `CCCC[P+](C)(CCCC)CCCC.[Cl-]` [methyltributylphosphonium chloride], the viscosity stood at 4692 ± 360 mPa·s.

Regarding `CCCC[P+](C)(CCCC)CCCC.COS(=O)(=O)[O-]` [tributylmethylphosphonium methyl sulfate], the viscosity was determined as 650.6 ± 29 mPa·s.

The same series, now with this note: 303.15 K; 101.33 kPa; Liquid; Direct current cell with electrodes.
In the case of `CCCC[P+](C)(CCCC)CCCC.O=S(=O)([N-]S(=O)(=O)C(F)(F)F)C(F)(F)F`, the electrical conductivity stood at 0.0743 ± 0.0074 S/m.

Regarding `CCCCn1cc[n+](C)c1.COS(=O)(=O)[O-]` [1-butyl-3-methylimidazolium methyl sulfate], the electrical conductivity was found to be 0.177 ± 0.018 S/m.

On to `COS(=O)(=O)[O-].C[n+]1ccccc1` [1-methylpyridinium methylsulfate], for which the electrical conductivity is 0.45 ± 0.045 S/m.

Take `CCCC[P+](C)(CCCC)CCCC.[Cl-]` [methyltributylphosphonium chloride]: the electrical conductivity stood at 0.0059 ± 0.00059 S/m.

For `CCCC[P+](C)(CCCC)CCCC.COS(=O)(=O)[O-]` [tributylmethylphosphonium methyl sulfate], the electrical conductivity was determined as 0.0158 ± 0.0016 S/m.

The same series, now with this note: 303.15 K; 101.33 kPa; Liquid; Vibrating tube method.
In the case of `CCCC[P+](C)(CCCC)CCCC.O=S(=O)([N-]S(=O)(=O)C(F)(F)F)C(F)(F)F`, the mass density turned out to be 1250.31 ± 2 kg/m3.

Consider `CCCCn1cc[n+](C)c1.COS(=O)(=O)[O-]` [1-butyl-3-methylimidazolium methyl sulfate], for which the mass density was found to be 1205.33 ± 2 kg/m3.

With `COS(=O)(=O)[O-].C[n+]1ccccc1` [1-methylpyridinium methylsulfate], the mass density turned out to be 1341.3 ± 2.1 kg/m3.

For the compound `CCCC[P+](C)(CCCC)CCCC.[Cl-]` [methyltributylphosphonium chloride], the mass density is 953.44 ± 2 kg/m3.

With `CCCC[P+](C)(CCCC)CCCC.COS(=O)(=O)[O-]` [tributylmethylphosphonium methyl sulfate], the mass density is 1054.25 ± 2 kg/m3.

The same series, now with this note: 303.15 K; 101.33 kPa; Liquid; transient hot wire.
Regarding `CCCC[P+](C)(CCCC)CCCC.O=S(=O)([N-]S(=O)(=O)C(F)(F)F)C(F)(F)F`, the thermal conductivity is reported as 0.125 ± 0.002 W/m/K.

Regarding `CCCCn1cc[n+](C)c1.COS(=O)(=O)[O-]` [1-butyl-3-methylimidazolium methyl sulfate], the thermal conductivity came to 0.176 ± 0.002 W/m/K.
